According to publication PMC5358321 (Synapse (New York, N.Y.), 2016):
“And” between values parts separate entries of the source, which are not always exact repeats. Identical values can stand only once. Marks after values point to notes of the source that are not given here.

How the values were obtained:
Aβ plaques [1] = biological target: T1, Aβ plaques (Homo sapiens, UniProt P05067); test: Postmortem human brain; format: binding; conditions: for GM/WM, local hot spots in grey matter: normal control NC2, hippocampus sections 7 μm
[2] = In vivo rat whole body PET/CT, interscapular brown adipose tissue; conditions: for IBAT +ATX uptake / Ratio uptake at 4.5 min/uptake at 85 min, IBAT +ATX: atomoxetine preinjection
[3] = In vivo rat PET/CT, brain uptake; conditions: for maximum (peak) activity levels in the various brain regions: 90 min scan; for time to approach plateau in cerebellum (CB): postinjection
Aβ plaques [4] = biological target: T1, Aβ plaques; conditions: AD brain homogenates using ^18F-florbetapir; ref Choi et al., 2009; cited from earlier work
Aβ plaques [5] = biological target: T1, Aβ plaques; test: In vitro binding affinity: inhibition of [^3H]PIB binding in human AD brain
Aβ plaques [6] = test: Ki using ^125I-TZDM; format: binding
Aβ plaques [7] = conditions: using ^125I-TZDM; ref Kung et al., 2003; cited from earlier work
[8] = normal control NC1, hippocampus sections 7 μm
[9] = subject AD1, hippocampus sections 7 μm
[10] = subject AD2, hippocampus sections 7 μm
[11] = 4.5 min post iv injection, baseline
[12] = 4.5 min, atomoxetine preinjection
[13] = 85 min, atomoxetine preinjection

T1 sequence (P05067 672-711 limits assumed): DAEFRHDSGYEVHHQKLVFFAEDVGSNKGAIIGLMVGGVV

Structure (SMILES) | GM/WM (gray matter to white matter ratio) (Aβ plaques [1]; [8]) | GM/WM, local hot spots in grey matter (Aβ plaques [1]) | GM/WM (gray matter to white matter ratio) (Aβ plaques [1]; [9]) | GM/WM (gray matter to white matter ratio) (Aβ plaques [1]; [10]) | IBAT +ATX uptake ([2]; 4.5 min (initial uptake)) | IBAT Baseline uptake [2, 11] | IBAT Baseline uptake ([2]; 85 min (end of scan), baseline) | IBAT +ATX uptake ([2]; 85 min) | Ratio uptake at 4.5 min/uptake at 85 min, IBAT +ATX [2] | Ratio uptake at 4.5 min/uptake at 85 min, IBAT Baseline ([2]; baseline) | Cerebellum +ATX uptake [3, 12] | Frontal Cortex +ATX uptake [3, 12] | Brain-stem uptake [3, 11] | Cerebellum uptake [3, 11] | Frontal Cortex uptake [3, 11] | Brain-stem uptake ([3]; 85 min (end of scan), baseline) | Cerebellum +ATX uptake [3, 13] | Frontal Cortex +ATX uptake [3, 13] | Cerebellum uptake ([3]; 85 min, baseline) | Frontal Cortex uptake ([3]; 85 min, baseline) | other results
CN(C)c1ccc(C=Cc2ccc(N[11CH3])cc2)cc1 [[^11C]Dalene, ^11C-methylamino-4′-dimethylaminostyrylbenzene] | ~1 | grey matter (~2) | 3.68 | 5.34 | 0.05 %Injected dose/cc and 0.054 %Injected dose/cc | 0.018 %Injected dose/cc | 0.12 %Injected dose/cc and 0.118 %Injected dose/cc | 0.05 %Injected dose/cc | 1.08 | 0.15 | 0.788 %injected dose/cc | 0.828 %injected dose/cc | 0.011 %injected dose/cc | 0.015 %injected dose/cc | 0.015 %injected dose/cc | 0.124 %injected dose/cc | 0.304 %injected dose/cc | 0.30 %injected dose/cc and 0.304 %injected dose/cc | 0.072 %injected dose/cc | 0.069 %injected dose/cc | fold lower GM/WM ratio than [^11C]TAZA (Aβ plaques [1]; AD subjects): approximately 5 fold; Ratio of brainstem to frontal cortex [3, 13]: 1.75; Ratio of cerebellum to frontal cortex [3, 13]: 1.0; Ratio of brainstem to frontal cortex ([3]; 85 min postinjection, baseline): 1.80; Ratio of cerebellum to frontal cortex ([3]; 85 min postinjection, baseline): 1.04; Ratio uptake at 4.5 min/uptake at 85 min, Brain-stem +ATX ([3]; atomoxetine preinjection): 2.12; Ratio uptake at 4.5 min/uptake at 85 min, Cerebellum +ATX ([3]; atomoxetine preinjection): 2.59; Ratio uptake at 4.5 min/uptake at 85 min, Frontal Cortex +ATX ([3]; atomoxetine preinjection): 2.72; Ratio uptake at 4.5 min/uptake at 85 min, Brain-stem ([3]; baseline): 0.09; Ratio uptake at 4.5 min/uptake at 85 min, Cerebellum ([3]; baseline): 0.21; time at which brain uptake plateaued ([3]; baseline): approximately 60 min; maximum (peak) activity levels in the various brain regions ([3]; baseline): approximately 0.1 % injected dose/cc; time to approach plateau in cerebellum (CB) ([3]; baseline): approximately 40 min
CNc1ccc(-c2cc3cc(O)ccc3o2)c(F)n1 [AZD4694] | – | – | – | – | – | – | – | – | – | – | – | – | – | – | – | – | – | – | – | – | Ki (Aβ plaques [4]): 2.3 nM
[11CH3]Nc1ccc(-c2nc3ccc(O)cc3s2)cc1 [[^11C]PIB] | – | – | – | – | – | – | 0.056 %Injected dose/cc | – | – | – | – | – | – | 0.823 %injected dose/cc | 0.714 %injected dose/cc | 0.056 %injected dose/cc | – | – | 0.124 %injected dose/cc | 0.045 %injected dose/cc | –
CNc1ccc(N=Nc2ccc(N(C)C)cc2)cc1 [TAZA, 4-methylamino-4′-N,N-dimethylaminoazobenzene] | – | – | – | – | – | – | – | – | – | – | – | – | – | – | – | – | – | – | – | – | Binding affinity Relative to PIB (Aβ plaques [5]): 7.81 ^g
CNc1ccc(C=Cc2ccc(N(C)C)cc2)cc1 [Dalene, 4-methylamino-4′-N,N-dimethylaminostyrylbenzene] | – | – | – | – | – | – | – | – | – | – | – | – | – | – | – | – | – | – | – | – | Times weaker affinity compared to SB-13 (Aβ plaques [6]; ^125I-TZDM assay, Kung et al., 2003): approximately 5; Binding affinity relative to SB-13 (Aβ plaques [6]; compared to affinity measures of SB-13 in the same assay (^125I-TZDM; Kung et al., 2003)): (0.21) ^i; Ki (Aβ plaques [7]): 15 nM and 15.2 nM
CN(C)c1ccc(N=Nc2ccc(N[11CH3])cc2)cc1 [[^11C]TAZA, 4-[^11C]methylamino-4′-N,N-dimethylaminoazo-benzene] | ~1 | in grey matter (≥5) | 19.6 | 30.5 | 0.15 %Injected dose/cc and 0.148 %Injected dose/cc | 0.015 %Injected dose/cc | 0.43 %Injected dose/cc and 0.429 %Injected dose/cc | 0.02 %Injected dose/cc and 0.016 %Injected dose/cc | 9 and 9.25 | 0.04 | 0.695 %injected dose/cc | 0.627 %injected dose/cc | 0.013 %injected dose/cc | 0.010 %injected dose/cc | 0.007 %injected dose/cc | 0.285 %injected dose/cc | 0.154 %injected dose/cc | 0.160 %injected dose/cc | 0.192 %injected dose/cc | 0.16 %injected dose/cc | displacement of [^11C]TAZA binding by PIB (Aβ plaques [1]; 10 μM PIB, gray matter of AD1 and AD2 hippocampus): > 90% and > 94%; gray matter to white matter ratios in AD brains (Aβ plaques [1]; AD brains, summary statement): > 20; time at which IBAT activity leveled off / plateau ([2]; baseline): ~90 min; Ratio of brainstem to frontal cortex ([3]; 85 min postinjection, baseline): 1.78; Ratio of cerebellum to frontal cortex ([3]; 85 min postinjection, baseline): 1.20; Ratio uptake at 4.5 min/uptake at 85 min, Brain-stem +ATX ([3]; atomoxetine preinjection): 4.2; Ratio uptake at 4.5 min/uptake at 85 min, Cerebellum +ATX ([3]; atomoxetine preinjection): 4.51; Ratio uptake at 4.5 min/uptake at 85 min, Frontal Cortex +ATX ([3]; atomoxetine preinjection): 3.92; ratio between initial time (4.5 min) and later time (85 min), brain regions ([3]; atomoxetine preinjection, brain regions overall): ~5; Ratio uptake at 4.5 min/uptake at 85 min, Brain-stem ([3]; baseline): 0.05; Ratio uptake at 4.5 min/uptake at 85 min, Cerebellum ([3]; baseline): 0.05; time at which brain uptake plateaued ([3]; baseline): approximately 60 min; maximum (peak) activity levels in the various brain regions ([3]; baseline): approximately 0.3 % injected dose/cc; time to approach plateau in cerebellum (CB) ([3]; baseline): approximately 50 min; reduction of brainstem to frontal cortex ratio by atomoxetine ([3]; end of scan): approximately 10%
